The inhibition is the percentage by which the read-out fell short of the control.

The target of the test is T1, ITK (Homo sapiens, UniProt Q08881).
T1 sequence (Q08881 1-620): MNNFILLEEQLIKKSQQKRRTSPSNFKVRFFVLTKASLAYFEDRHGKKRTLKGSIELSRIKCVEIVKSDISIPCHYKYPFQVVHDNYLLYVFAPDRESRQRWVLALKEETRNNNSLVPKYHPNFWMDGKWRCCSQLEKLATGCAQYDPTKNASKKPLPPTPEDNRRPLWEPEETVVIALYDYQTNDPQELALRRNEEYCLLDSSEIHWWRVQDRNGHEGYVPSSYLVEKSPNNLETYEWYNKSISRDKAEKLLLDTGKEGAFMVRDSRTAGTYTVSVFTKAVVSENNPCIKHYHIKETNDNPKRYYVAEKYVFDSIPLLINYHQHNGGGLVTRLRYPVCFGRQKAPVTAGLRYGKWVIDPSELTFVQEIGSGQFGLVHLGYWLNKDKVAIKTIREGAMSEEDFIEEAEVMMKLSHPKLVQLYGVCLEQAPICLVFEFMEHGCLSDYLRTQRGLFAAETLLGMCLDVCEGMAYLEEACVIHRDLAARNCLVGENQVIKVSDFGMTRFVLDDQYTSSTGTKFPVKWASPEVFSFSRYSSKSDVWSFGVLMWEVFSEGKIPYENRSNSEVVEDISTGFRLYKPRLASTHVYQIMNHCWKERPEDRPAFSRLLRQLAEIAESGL
The test is classed as cell-based. Conditions: Jurkat, read-out: % inhibition at 1 μM.

Molecules are shown by their SMILES. A value given as a limit tells only on which side of the number the result lay.

On to `C=CC(=O)N1CCC[C@@H](n2nc(-c3ccc(Oc4ccccc4)cc3)c3c(N)ncnc32)C1` [ibrutinib], for which the inhibition at 1 µM is greater than 90%.

The values are drawn from publication PMC5491371 (Clinical cancer research : an official journal of the …, 2016).
